According to US20240336611A1 (Insilico Medicine IP Limited, priority 2021, published 2024):

How the values were obtained:
[1] = Metabolic stability in human liver microsomes; format: in vitro ADME; conditions: LM Clint (intrinsic clearance); 1 μM test compound, 0.5 mg protein/mL microsome, 37° C., up to 60 min
Method: 2.1. Test Compound and Control Working Solution Preparation: Working solution: 5 µL of compound and control stock solution (10 mM in dimethyl sulfoxide (DMSO)) were diluted with 495 μL of acetonitrile (ACN) (intermediate solution concentration: 100 μM, 99% ACN).
2.2.1. […] 2.2.2. Preparation Procedure: The appropriate amount of NADPH powder were weighed and diluted into a 10 mM MgCl2 solution (working solution concentration: 10 unit/mL; final concentration in reaction system: 1 unit/mL).
2.3.2. Preparation Procedure: The appropriate concentrations of microsome working solutions were prepared in 100 mM potassium phosphate buffer. 2.4. Stop Solution Preparation: Cold (4° C.) acetonitrile (ACN) containing 200 ng/mL tolbutamide and 200 ng/mL labetalol as internal standards (IS) were used as the stop solution.
2.5.1. Pre-warm empty ‘Incubation’ plates T60 and NCF60 for 10 min minutes. 2.5.2. Liver microsomes were diluted to 0.56 mg/mL in 100 mM phosphate buffer. 2.5.3. 445 uL microsome working solutions (0.56 mg/mL) were transferred into pre-warmed ‘Incubation’ plates T60 and NCF60. Then ‘Incubation’ plates T60 and NCF60 were pre-incubated for 10 min at 37° C. with constant shaking. 54 μL liver microsomes were transferred to blank plate, then 6 μL NAPDH cofactor were added to the blank plate, and then 180 μL quenching solution can be added to blank plate. 2.5.4 5 μL compound working solution (100 μM) were added into ‘incubation’ plates (T60 and NCF60) containing microsomes and mix 3 times thoroughly. 2.5.5. For the NCF60 plate, 50 uL of buffer were added and were mixed 3 times thoroughly. Start timing; plate was incubated at 37° C. for 60 min while shaking. 2.5.6. In ‘Quenching’ plate TO, 180 μL quenching solution were added and 6 μL NAPDH cofactor were added. Ensured the plate was chilled to prevent evaporation. 2.5.7. For the T60 plate, were mixed 3 times thoroughly, and immediately removed 54 μL mixture for the 0-min time point to ‘Quenching’ plate. Then 44 μL NAPDH cofactor were added to incubation plate (T60). Start timing; plate were incubated at 37° C. for 60 min while shaking.
2.5.8. At 5, 10, 20, 30, and 60 min, 180 μL quenching solution were added to ‘Quenching’ plates, mix once, and were serially transferred 60 μL sample from T60 plate per time point to ‘Quenching’ plates.
2.5.9. For NCF60: were mixed once, and 60 μL sample were transferred from the NCF60 incubation to ‘Quenching’ plate containing quenching solution at the 60-min time point.
2.5.10. All sampling plates were shaken for 10 min, then centrifuged at 4000 rpm for 20 minutes at 4° C. 2.5.11. 80 μL supernatant were transferred into 240 μL HPLC water, and were mixed by plate shaker for 10 min. 2.5.12. Each bioanalysis plate were sealed and shaken for 10 minutes prior to LC-MS/MS analysis.
3.1. The equation of first order kinetics were used to calculate T1/2 and Intrinsic clearance (CLint mic) in (μL/min/mg).
Equation of first order kinetic.

[2] = target: T1, TNIK kinase [amino acid sequence (1-367), Invitrogen] (Homo sapiens, UniProt Q9UKE5); test: TNIK kinase inhibition assay (Z-lyte FRET-peptide); format: biochemical; conditions: 0.625 nM TNIK kinase, 2 μM Ser/Thr 7 peptide, 64 μM ATP, one hour at room temperature
T1 construct: purchased Invitrogen
T1 sequence (Q9UKE5 1-367): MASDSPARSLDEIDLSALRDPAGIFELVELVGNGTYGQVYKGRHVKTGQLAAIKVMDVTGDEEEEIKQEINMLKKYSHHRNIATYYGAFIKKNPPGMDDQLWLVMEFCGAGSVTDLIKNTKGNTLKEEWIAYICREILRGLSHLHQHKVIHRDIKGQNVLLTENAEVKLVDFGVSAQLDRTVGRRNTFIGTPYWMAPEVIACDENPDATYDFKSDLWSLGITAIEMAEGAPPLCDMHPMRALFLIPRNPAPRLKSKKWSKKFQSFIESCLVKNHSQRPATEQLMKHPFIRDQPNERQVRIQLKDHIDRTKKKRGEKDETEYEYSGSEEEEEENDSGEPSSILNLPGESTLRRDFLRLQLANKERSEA
Method: Z-lyte assay kit was purchased from Invitrogen. A site-specific protease recognizes and cleaves non-phosphorylated FRET-peptides. Phosphorylation of FRET-peptides suppresses cleavage by protease and will maintain FRET from donor to acceptor.
5 μl of Development Reagent A solution was then added to cleave non-phosphorylated peptide with a dilution 1:65000 in Development Buffer B. The assay plate was incubated at room temperature for another one hour and then read in the Envision plate reader (PerkinElmer).

## CC(C)n1cnc(-c2ccc(F)cc2)c1-c1nc(C(=O)Nc2ccc(N3CCN(C)CC3)cc2)cs1 [Compound 2, 2-(4-(4-fluorophenyl)-1-isopropyl-1H-imidazol-5-yl)-N-(4-(4-methylpiperazin-1-yl)phenyl)thiazole-4-carboxamide]
[1]
  Human Liver Microsome (μM/min/mg): ++ (10-100 μM/min/mg as ++)
[2]
  IC50: 1 to 12 nM

## CC(C)n1cnc(-c2ccc(F)cc2)c1-c1nc(C(=O)Nc2ccc(N3CCN(C)CC3)cc2F)cs1 [Compound 6, N-(2-fluoro-4-(4-methylpiperazin-1-yl)phenyl)-2-(4-(4-fluorophenyl)-1-isopropyl-1H-imidazol-5-yl)thiazole-4-carboxamide]
[1]
  Human Liver Microsome (μM/min/mg): + (>100 μM/min/mg as +)
[2]
  IC50: 1 to 12 nM

## CC(C)n1cnc(-c2ccc(F)cc2)c1-c1nc(C(=O)Nc2ccc(N3CCN(C)CC3)cn2)cs1 [Compound 7, 2-(4-(4-fluorophenyl)-1-isopropyl-1H-imidazol-5-yl)-N-(5-(4-methylpiperazin-1-yl)pyridin-2-yl)thiazole-4-carboxamide]
[1]
  Human Liver Microsome (μM/min/mg): + (>100 μM/min/mg as +)
[2]
  IC50: 1 to 12 nM

## CC(C)n1cnc(-c2ccc(F)cc2)c1-c1nc(C(=O)Nc2ccc(N3CCN(C)CC3)nc2)cs1 [Compound 8, 2-(4-(4-fluorophenyl)-1-isopropyl-1H-imidazol-5-yl)-N-(6-(4-methylpiperazin-1-yl)pyridin-3-yl)thiazole-4-carboxamide]
[1]
  Human Liver Microsome (μM/min/mg): + (>100 μM/min/mg as +)
[2]
  IC50: 1 to 12 nM

## CC(C)n1cnc(-c2ccc(F)cc2)c1-c1nc(C(=O)Nc2ccc(C3CCN(C)CC3)cn2)cs1 [Compound 9, 2-(4-(4-fluorophenyl)-1-isopropyl-1H-imidazol-5-yl)-N-(5-(1-methylpiperidin-4-yl)pyridin-2-yl)thiazole-4-carboxamide]
[1]
  Human Liver Microsome (μM/min/mg): ++ (10-100 μM/min/mg as ++)
[2]
  IC50: 1 to 12 nM

## CC(C)n1cnc(-c2ccc(F)cc2)c1-c1csc(C(=O)Nc2ccc(N3CCN(C)CC3)cc2F)n1 [Compound 12, N-(2-fluoro-4-(4-methylpiperazin-1-yl)phenyl)-4-(4-(4-fluorophenyl)-1-isopropyl-1H-imidazol-5-yl)thiazole-2-carboxamide]
[1]
  Human Liver Microsome (μM/min/mg): ++ (10-100 μM/min/mg as ++)
[2]
  IC50: 1 to 12 nM

## CC(C)n1cnc(-c2ccc(F)cc2)c1-c1csc(C(=O)Nc2ccc(N3CCN(C)CC3)cn2)n1 [Compound 13, 4-(4-(4-fluorophenyl)-1-isopropyl-1H-imidazol-5-yl)-N-(5-(4-methylpiperazin-1-yl)pyridin-2-yl)thiazole-2-carboxamide]
[1]
  Human Liver Microsome (μM/min/mg): + (>100 μM/min/mg as +)
[2]
  IC50: 1 to 12 nM

## CC(C)n1cnc(-c2ccc(F)cc2)c1-c1nc(C(=O)Nc2ccc(N3CCN(C)CC3)cc2F)c[nH]1 [Compound 14, N-(2-fluoro-4-(4-methylpiperazin-1-yl)phenyl)-5′-(4-fluorophenyl)-3′-isopropyl-1H,3′H-[2,4′-biimidazole]-4-carboxamide]
[1]
  Human Liver Microsome (μM/min/mg): ++ (10-100 μM/min/mg as ++)
[2]
  IC50: 1 to 12 nM

## O=C(Nc1ccc(N2CCOCC2)cn1)c1c[nH]c(-c2c(-c3ccc(F)cc3)ncn2C2COC2)n1 [Compound 72, 5′-(4-fluorophenyl)-N-(5-morpholinopyridin-2-yl)-3′-(oxetan-3-yl)-1H,3′H-[2,4′-biimidazole]-4-carboxamide]
[1]
  Human Liver Microsome (μM/min/mg): ++ (10-100 μM/min/mg as ++)

## CC(C)c1onc(-c2ccc(F)cc2)c1-c1nc(C(=O)Nc2ccc(C3CN(C)C3)cn2)co1 [Compound 107, 2-(3-(4-fluorophenyl)-5-isopropylisoxazol-4-yl)-N-(5-(1-methylazetidin-3-yl)pyridin-2-yl)oxazole-4-carboxamide]
[2]
  IC50: 12 to 150 nM

## [2H]C([2H])([2H])N1CC(c2ccc(NC(=O)c3csc(-c4c(-c5ccc(F)cc5)ncn4C([2H])(C)C)n3)nc2)C1 [Compound 110, 2-[3-(1-deuterio-1-methyl-ethyl)-5-(4-fluorophenyl)imidazol-4-yl]-N-[5-[1-(trideuteriomethyl)azetidin-3-yl]-2-pyridyl]thiazole-4-carboxamide]
[2]
  IC50: 1 to 12 nM

## [2H]C([2H])([2H])N1CC(c2ccc(NC(=O)c3coc(-c4c(-c5ccc(F)cc5)ncn4C([2H])(C)C)n3)nc2)C1 [Compound 111]
[2]
  IC50: 12 to 150 nM

## [2H]C([2H])([2H])N1CC(c2ccc(NC(=O)c3coc(-c4c(-c5ccc(F)cc5)ncn4C(C)C)n3)nc2)C1 [Compound 112, 2-[5-(4-fluorophenyl)-3-isopropyl-imidazol-4-yl]-N-[5-[1 (trideuteriomethyl)azetidin-3-yl]-2-pyridyl]oxazole-4-carboxamide]
[2]
  IC50: 12 to 150 nM

## [2H]C([2H])([2H])N1CC(c2ccc(NC(=O)c3c[nH]c(-c4c(-c5ccc(F)cc5)ncn4C(C)C)n3)nc2)C1 [Compound 113]
[2]
  IC50: 12 to 150 nM

## [2H]C([2H])([2H])N1CC(c2ccc(NC(=O)c3csc(-c4c(C(C)C)cnn4-c4ccc(F)cc4)n3)nc2)C1 [Compound 116, 2-(1-(4-fluorophenyl)-4-isopropyl-1H-pyrazol-5-yl)-N-(5-(1-(trideuteriomethyl)azetidin-3-yl)pyridin-2-yl)thiazole-4-carboxamide]
[2]
  IC50: 1 to 12 nM

## [2H]C([2H])([2H])N1CC(c2ccc(NC(=O)c3c[nH]c(-c4c(-c5ccc(F)cc5)ncn4C([2H])(C)C)n3)nc2)C1 [Compound 118]
[2]
  IC50: 12 to 150 nM

## [2H]C([2H])([2H])N1CC(c2ccc(NC(=O)c3c[nH]c(-c4c(-c5ccc(F)cc5)ncn4C4CCC4)n3)nc2)C1 [Compound 119, 2-[3-cyclobutyl-5-(4-fluorophenyl)imidazol-4-yl]-N-[5-[1-(trideuteriomethyl)azetidin-3-yl]-2-pyridyl]-1H-imidazole-4-carboxamide]
[2]
  IC50: 12 to 150 nM

## [2H]C([2H])([2H])N1CC(c2ccc(NC(=O)c3c[nH]c(-c4c(-c5ccc(F)cc5)ncn4C4CCC4)n3)c(F)c2)C1 [Compound 120, 2-[3-cyclobutyl-5-(4-fluorophenyl)imidazol-4-yl]-N-[2-fluoro-4-[1-(trideuteriomethyl)azetidin-3-yl]phenyl]-1H-imidazole-4-carboxamide]
[2]
  IC50: 1 to 12 nM

## [2H]C([2H])([2H])N1CC(c2ccc(NC(=O)c3nc(-c4c(-c5ccc(F)cc5)ncn4C(C)C)cs3)nc2)C1 [Compound 130, 4-[5-(4-fluorophenyl)-3-isopropyl-imidazol-4-yl]-N-[5-[1-(trideuteriomethyl)azetidin-3-yl]-2-pyridyl]thiazole-2-carboxamide]
[1]
  Human Liver Microsome (μM/min/mg): ++ (10-100 μM/min/mg as ++)

## [2H]C([2H])([2H])N1CC(c2ccc(NC(=O)c3nc(-c4c(-c5ccc(F)cc5)ncn4C(C)C)cs3)c(F)c2)C1 [Compound 131, 4-[5-(4-fluorophenyl)-3-isopropyl-imidazol-4-yl]-N-[2-fluoro-4-[1-(trideuteriomethyl)azetidin-3-yl]phenyl]thiazole-2-carboxamide]
[1]
  Human Liver Microsome (μM/min/mg): ++ (10-100 μM/min/mg as ++)

## [2H]C(C)(C)n1cnc(-c2ccc(F)cc2)c1-c1nc(C(=O)Nc2ccc(N3CCN(CC)CC3)cc2)c[nH]1 [Compound 135, 2-[3-(1-deuterio-1-methyl-ethyl)-5-(4-fluorophenyl)imidazol-4-yl]-N-[4-(4-ethylpiperazin-1-yl)phenyl]-1H-imidazole-4-carboxamide]
[2]
  IC50: 12 to 150 nM
